Assay results: patent US20240182413A1, “INSECTICIDAL COMPOUNDS” (Pluton Biosciences, Inc., priority 2022, published 2024)
In brackets after ≈: the same amount, converted by molar mass. Several values for one entry are separate records, joined by “and”; a condition that tells them apart may be missing. Identical values can stand only once. Like-named read-outs stand apart in the source and are kept apart here.

Experiments:
[1] = test system: Spodoptera frugiperda (fall armyworm) first instar larvae; assay: Spodoptera frugiperda killing assay (diet-surface overlay); type: in vivo
Description: Insect killing assays. Each compound was dissolved in dimethyl sulfoxide (DMSO). Killing dose curves were constructed for each compound by producing a two-fold dilution series of the compound (e.g., comprising approximately 16 serial dilutions of a stock for 3,3′-diindolylmethane and 3-((1H-Indol-2-yl)methyl)-1H-indole and comprising approximately 12 serial dilutions of a stock for 3,3′-diindolyl and 3,3′-(pyridin-4-ylmethylene)bis(1H-indole)). Dilutions were made in sterile NYSM broth as described above. The two-fold dilution series were tested in a killing bioassay as described below. Data were collected to construct a dose curve and determine the half-maximal lethal concentration (LC50) value.
Bioassays were performed using first instar larvae of the Lepidopteran species Spodoptera frugiperda (fall armyworm), with an N=16 for each concentration of compound tested. S. frugiperda larvae were purchased from Benzon Research, Inc. (Carlisle, PA). A diet-surface overlay format was used in which 1 milliliter of standard lepidopteran diet was placed in each well. One hundred microliters of sample were pipetted into each well and allowed to dry. A DMSO control was included with each set of samples.
During the development of embodiments of the technology described herein, experiments were conducted to test the killing of arundine against a panel of 11 insect species. […] Briefly, arundine was dissolved in dimethyl sulfoxide (DMSO). Killing dose curves were constructed by producing a two-fold dilution series of arundine. Dilutions were made in sterile NYSM as described. The two-fold dilution series were tested in a killing bioassay performed using first instar larvae of the species listed in Table 4, with an N=16 for each concentration of compound tested. A diet-surface overlay format was used in which 1 milliliter of standard lepidopteran diet was placed in each well. One hundred microliters of sample were pipetted into each well and allowed to dry. A DMSO control was included with each set of samples. […] Data were collected to construct a dose curve and determine the half-maximal lethal concentration (LC50) value.

[2] = test system: Cry1Fa resistant FAW; assay: Killing of Cry1Fa resistant fall armyworm; type: in vivo, Spodoptera frugiperda; settings: 1000 ppm BIM compound, 20 μl on diet surface; Cry1 FAW neonates; 5-7 days
Description: During the development of embodiments of the technology provided herein, experiments were conducted to test the killing potency of arundine-derived BIM compounds against strains of fall armyworm (FAW) that are resistant to Bacillus thuringiensis (Bt) insecticidal proteins (e.g., Cry1Fa and Vip3A). Susceptible FAW (Spodoptera frugiperda) was obtained from Benzon Research Inc, Lancaster, PA. Cry1Fa resistant FAW originating from Puerto Rico was reared in a facility by Genective (Weldon, IL). Vip3A resistant FAW originating from southern US was reared in a facility by Genective (Weldon, IL).
FAW eggs were incubated at approximately 26° C. at 50% relative humidity until eclosion (approximately 3 days) and the hatch was timed to within 12 hours of infesting the diet plates. BIM compounds were obtained from frozen stocks, thawed, suspended in 5% DMSO along with NYSM buffer to provide a solution of 2000 ppm BIM compound in a total volume of 1.0 ml, and stored at −20° C. For testing, a single tube of each BIM compound sample was thawed at 4° C. NYSM buffer was warmed to room temperature. A volume of 750 μl. NYSM buffer was added to 750 μl from each 1.0-ml volume to prepare samples of 1.5 ml BIM compound at 1000 ppm for testing. A total of three BIM preparations per BIM molecule were prepared and tested for killing potency. Compounds tested were BIM-1, 11, 25, 26, 28, 29, 30, 32, 34. A solution of 5% DMSO in NYSM buffer was used as a negative control.
A standard commercially available semi-solid lepidopteran diet was prepared following manufacturer's instructions (Frontier, multi-species diet). […] LB+Kanamycin (antibiotic) growth media is the negative control for bacterial cultures. Cry1Fa is a positive control prepared as E. coli cells expressing the full-length Cry1Fa protein resuspended in PBS buffer at half the volume of the original growth culture resulting in 2× concentration of cells. Vip3A is a positive control prepared as E. coli whole cell culture expressing Vip3A.
For each of 3 replicates, 200 μl of diet was prepared in wells of a 96-well plate and the diet plates were warmed to room temperature prior to dispensing samples. After 750 μl NYSM buffer was added to 750 μl from each 1.0-ml volume to prepare samples of 1.5 ml BIM compound at 1000 ppm for testing, BIM solutions were vortexed and 20 μl were dispensed onto the diet surface in each of 16 wells using a repeating pipettor. These steps were repeated for each sample and control for each insect population being tested. BIM compound and control solutions were allowed to absorb into the diet in a biosafety hood until the diet surface was visibly dry. Once dry, wells were sealed with a clear membrane. Two pin holes were poked through the membrane in each well to maintain appropriate humidity level and aeration. Each well was infested with a single neonate larva, and the wells were resealed with perforated membrane to prevent escape. The infested plates were incubated in environmental chambers at 26° C. and 50% relative humidity for 5-7 days. All bioassays were assessed visually to record larval mortality and growth inhibition.

[3] = test system: Aedes aegypti larvae; assay: Aedes aegypti killing assay (larval bioassay, two-fold dilution series); type: in vivo
Description: Insect killing assays. Each compound was dissolved in dimethyl sulfoxide (DMSO). Killing dose curves were constructed for each compound by producing a two-fold dilution series for each compound (e.g., comprising approximately 20 serial dilutions of a stock). Dilutions were made in sterile nutrient yeast extract salt medium (NYSM) broth. The NYSM contained 8 g/L nutrient broth powder, 0.5 g/L yeast extract, 1 mM MgCl2, 700 μM CaCl2, and 50 μM MnCl2 in water. The two-fold dilution series were tested in a killing bioassay as described below. Data were collected to construct a dose curve and determine the half-maximal lethal concentration (LC50) value.
Bioassays were performed using second or third instar Aedes aegypti larvae, with biological replication. Ae. aegpyti larvae were purchased from Benzon Research, Inc. (Carlisle, PA). Larvae were washed with sterile water before transfer to 24-well assay plates containing 1 mL of sterile water in each well. Each well contained 5 larvae. The final DMSO concentration in each assay well was 1%. Larval mortality was scored for each well at 24-hour timepoints after application. […] In Table 1, mean mortalities and standard deviations were calculated from at least three independent biological replicates. […] LC50 values were calculated using GraphPad Prism software.

[4] = Spodoptera frugiperda, first instar larvae, calculated from killing dose curves FIG. 3D to 3NN, read-out: LD50 (the source's name)
[5] = first instar larvae, calculated from killing dose curves FIG. 3D to 3NN, read-out: LD50 (the source's name)

SMILES	LC50 [1, 4] [µM]	also measured
Brc1ccc2c(Cc3c[nH]c4cc(Br)ccc34)c[nH]c2c1 [BIM-14]	934	
Ic1ccc2c(Cc3c[nH]c4cc(I)ccc34)c[nH]c2c1 [BIM-15]	> 10000	
N#Cc1ccc2c(Cc3c[nH]c4cc(C#N)ccc34)c[nH]c2c1 [BIM-17]	> 10000	
O=[N+]([O-])c1ccc2c(Cc3c[nH]c4cc([N+](=O)[O-])ccc34)c[nH]c2c1 [BIM-18]		LC50 ([1]; Spodoptera frugiperda, read-out: LD50 (μM)): > 10000 µM
Cc1ccc2c(Cc3c[nH]c4cc(C)ccc34)c[nH]c2c1 [BIM-19]	1410	
COc1ccc2c(Cc3c[nH]c4cc(OC)ccc34)c[nH]c2c1 [BIM-20]		LC50 [1, 5]: >3000 µM
FC(F)(F)c1ccc2c(Cc3c[nH]c4cc(C(F)(F)F)ccc34)c[nH]c2c1 [BIM-21]	974	
CC(c1c[nH]c2cc(Cl)ccc12)c1c[nH]c2cc(Cl)ccc12 [BIM-22]	< 3000	
CCC(c1c[nH]c2cc(Cl)ccc12)c1c[nH]c2cc(Cl)ccc12 [BIM-23]	1350	
CCCC(c1c[nH]c2cc(Cl)ccc12)c1c[nH]c2cc(Cl)ccc12 [BIM-24]	678	
c1ccc2c(C(CCCC(c3c[nH]c4ccccc34)c3c[nH]c4ccccc34)c3c[nH]c4ccccc34)c[nH]c2c1 [BIM-27]	> 5000	
Clc1ccc2c(C(c3ccc(Br)cc3)c3c[nH]c4cc(Cl)ccc34)c[nH]c2c1 [BIM-28]	371	lethality [2]: 100%
Cc1ccc(C(c2c[nH]c3cc(Cl)ccc23)c2c[nH]c3cc(Cl)ccc23)cc1 [BIM-29]		LC50 [1, 5]: 611 µM; lethality [2]: 100%
Clc1ccc(C(c2c[nH]c3cc(Cl)ccc23)c2c[nH]c3cc(Cl)ccc23)cc1 [BIM-33]	485	
Clc1ccc2c(C(c3ccccc3Br)c3c[nH]c4cc(Cl)ccc34)c[nH]c2c1 [BIM-34]	352	lethality [2]: 100%
Clc1ccc2c(C(c3cccc(Br)c3)c3c[nH]c4cc(Cl)ccc34)c[nH]c2c1 [BIM-35]	429	
Clc1ccc2c(Cc3c[nH]c4ccccc34)c[nH]c2c1 [BIM-36]		LC50 [1, 5]: 2457 µM
Clc1ccc2c(C(c3ccc(Br)cc3)c3c[nH]c4ccccc34)c[nH]c2c1 (centres unmarked) [BIM-37 R/S 1:1]		LC50 [1, 5]: 725 µM
Clc1ccc2c(C(c3ccc(Br)cc3)c3c[nH]c4ccccc34)c[nH]c2c1 (centres unmarked) [BIM-37 R/S 3:1]		LC50 [1, 5]: 576 µM
CN(C)Cc1c[nH]c2ccccc12 [gramine]		LC50 ([3]; Aedes aegypti, 72 h): 189 µg/mL and 1.08 mM
OCc1c[nH]c2ccccc12 [indole-3-carbinol]		LC50 ([3]; in vivo): 453 ± 307 µM; LC50 (μg/mL) ([3]; in vivo): 66.7 ± 45.2 µg/mL (≈ 453 µM)
c1ccc2[nH]ccc2c1 [indole]		LC50 ([3]; Aedes aegypti, 72 h): 40.2 µg/mL and 344 µM
